We go through one compound from patent publication US9918983B2, “Suicidal LSD1 inhibitors targeting SOX2-expressing cancer cells” (THE BOARD OF REGENTS OF THE NEVADA SYSTEM OF HIGHER …, priority 2013, dated 2018).

A value given as a limit tells only on which side of the number the result lay.

This assay concerns histone H3 and H4 methylation and acetylation. The experiment in a line: Histone modifications in F9 cells (Western blotting). Format: cell-based, mouse. On the procedure:
To quantify and compare the protein band densities in the Western blots shown in the figures, a titration by serial dilution of the siRNA protein samples for mES cell lysates was used as a reference. The concentration of titration samples was measured by use of a NanoDrop 2000 apparatus, and the protein concentration of all titration samples was adjusted to 1 μg/μL. The protein samples were loaded onto an SDS-polyacrylamide gel at levels ranging from 1 μg to 13 μg at 2-μg intervals and immune blotted with each antibody, including anti-LSD1, anti-HDAC1, and anti-histone H3 antibodies, with three independent loadings. The Western blots were developed with exposure times ranging from 30 s to 1 min. The exposure density of each band was scanned by Adobe Photoshop Elements (version 4.0) software using a CanonScan 8600F scanner (Canon, Calif.) and was subsequently quantified by use of the area density tool of Gel-Pro Analyzer (version 4.0) software (Media Cybernetics, Inc.) and plotted. The regression analysis of each signal was performed by use of the Microsoft Excel program's Analysis Tool Pak regression option. […] The amount of the protein band in the Western blot shown in the figures was quantified by scanning, as described for the reference titration. […] The quantity of protein band densities between two protein samples was externally corrected by use of the reference plots. […] The statistical differences between the experimental and control groups were analyzed by one-way analysis of variance (ANOVA). […]
Referring to FIG. 28D, time course analyses of the effects of 50 μM LSD1 inhibitor CBB1007 on histone modifications in F9 cells are shown, but with a shorter time course than above. The mean density of each band was quantified by the use of Gel-Pro Analyzer (version 4.0) software, and error bars represent SEMs for duplicate samples. […] The statistical differences were analyzed by one-way ANOVA. *, P_0.05; **, P_0.01. […]

Take `COC(=O)c1cc(CN2CCN(C(=N)N)CC2)cc(C(=O)N2CCN(C(=O)c3ccc(C(=N)N)cc3)CC2)c1` [CBB1007]: the “H3K4 methylation of oligonucleosomes from treated cells” value is on record as “hypermethylated on H3K4”. Also, the “time to increases of acetylation at H4K16 and H3K56 and mono- and dimethylation at H3K4” value (50 μM) is reported as not above 20 min.
